{"source": "paper PMC6424996", "about": "“Effect of peptide-conjugated nanoparticles on cell lines” (Progress in Biomaterials, 2019)", "assay_type_in_all_cases": "cell-based", "key": {"[1]": {"test_system": "MDA MB-231 (Breast cancer) cells", "test": "MTT assay of nanoparticles, P1 and conjugates on MDA MB-231", "details": "for % inhibition: MTT, 24 h exposure, 5000 cells/well, 570 nm, triplicates", "protocol": "(§1) Cell lines were acquired from NCCS—National Centre for Cell Science, Pune, India. The HT-29 (Colon carcinoma) and MDA MB-231 (Breast cancer) cells were plated into 25-mm^2 T-flasks after thawing them at 37 °C in a water bath for few minutes. The thawed cells were transferred in a centrifuge tube and centrifuged for 3 min at 2000 rpm/min. The cells were, thus, collected discarding the supernatant and mixed well in Dulbecco’s modified Eagle’s medium (DMEM) solution with 12% fetal bovine serum, and antibiotics (streptopenicillin and amphotericin B solution, Sigma). Later, they were plated in 25 mm^2 in the same DMEM solution, individually. The T-flasks containing the cells were incubated for 24 h in humidified environment with 5% CO2. These cells after 24 h were washed with phosphate buffer saline (PBS). The medium was regularly changed for the cells to reach 50% confluence (Hajiaghaalipour et al [2015]). To check the viability of cells, MTT assay was carried out and 96-well plates were used to seed the cell lines of interest at 5000 cells/well and incubated overnight at 37 °C in an incubator with 5% CO2. After incubation, the cells were treated with different concentrations (1, 5, 10 μg/mL) of P1, AgNPs, AuNPs, P1–AgNP and P1–AuNP conjugates. The plates along with the treated cells were again incubated for 24 h at the same condition. The stored stock of MTT solution was added to the control and treated cell line samples, and again incubated at 37 °C for 2–3 h. After incubation, the media were carefully removed from the wells and mixed with solubilizing buffer. A purple color solution was visible at this stage. The control solution (without incorporation of nanoparticles/pure incubated cells) and treated samples were again incubated for an hour at 37 °C to ensure that the formazan precipitate was dissolved. The measurement of MTT assay was analyzed with Elisa Reader (Thermo Scientific, Multiskan Spectrum) at 570 nm (Inkielewicz-Stepniak et al [2014]). Percentage inhibition of cells was calculated according to the following equation: Cytotoxicity(%)=(experimentalabsorbance570nmofexposedcells/absorbance570nmofunexposedcells)×100.\n(§2) All experiments were done in triplicates and the results were represented as mean ± SEM. The experimental data were read by two-way analysis of variance (ANNOVA). Differences were considered significant at p < 0.05. The IC-50 value was calculated using Microsoft Excel 2007 software (logarithmic transformation of X values and nonlinear regression sigmoidal dose–response analysis with variable slope—with bottom and top constraints set at 0 and 100, resp.)."}, "[2]": {"test_system": "NIH3T3 (Mouse embryo fibroblast) cells", "test": "Cytotoxicity on normal NIH3T3 cells (MTT assay)", "protocol": "Above-mentioned peptides (P1, P2, P3, P4, and P5) obtained from other sources were screened for cytotoxicity by MTT assay on NIH3T3 (Mouse embryo fibroblast) cells (normal) and HT-29 (Colon carcinoma) cells (cancerous) by MTT assay. Different concentrations of the peptides (1 μL, 3 μL, […], 10 μL, 20 μL) were used to treat the cancerous and normal cells consecutively (Inkielewicz-Stepniak et al. [2014]). The percentage inhibition was calculated."}, "MDA MB-231 cells": {"test_system": "MDA MB-231 cells", "test": "PI/AO staining for dead/live cells, MDA MB-231", "details": "MDA MB-231, 1 µg/mL, 24 h, Figs. 7, 9", "protocol": "(§3) HT-29 and MDA MB-231 cells were plated at a density of 1 × 10^6 cells/mL in 6-well tissue culture plates. They were treated with 1 µg/mL each of AgNP, AuNP, P1, P1–AgNP and P1–AuNP conjugated samples and were incubated in at 37 °C in 5% CO2 for 24 h. The cells were then harvested and washed twice using PBS after centrifugation at 2000 rpm for 5 min. An equal volume (10 µg/mL) of fluorescent dyes, propidium iodide (PI)/acridine orange (AO) was added to the cellular pellet. These freshly stained cells were observed under an inverted fluorescent microscope within 30 min (Banerjee and Ravishankar [2017]).\n(§4) The nucleic acid-binding dyes propidium iodide (PI) and acridine orange (AO) help us to detect the dead cells and live cells under the microscope. AO permeates both dead and live cells; thus, it stains all nucleated cells to generate green fluorescence, whereas PI identifies the dead cells only and fluoresce red. The treated cancer cells were both stained with PI and AO equally, and were observed under fluorescence microscope. The results are obtained on swapping of the images to have an apparent understanding of the drug effects (Hajrezaie et al [2015]; Hajiaghaalipour et al [2015])."}, "HT-29 cells": {"test_system": "HT-29 cells", "test": "PI/AO staining for dead/live cells, HT-29", "details": "HT-29, 1 µg/mL, 24 h, Figs. 6, 8", "protocol": "as §3, §4"}, "[3]": {"test_system": "HT-29 (Colon carcinoma) cells", "test": "Screening of cytotoxic activity of peptides by MTT assay on HT-29 cells", "details": "for % inhibition (peptide screening): HT-29 cancerous cells, MTT, Fig. 1", "procedure": "Different concentrations of the peptides (1 μL, 3 μL, 5 L, 10 μL, 20 μL) were used to treat the cancerous and normal cells consecutively (Inkielewicz-Stepniak et al. [2014]). The percentage inhibition was calculated."}, "[4]": {"test_system": "HT-29 (Colon carcinoma) cells", "test": "MTT assay of nanoparticles, P1 and conjugates on HT-29", "details": "24 h exposure, 5000 cells/well, 570 nm, triplicates", "protocol": "as §1, with “The stored stock of MTT solution was added to the control and treated cell line samples, and again incubated at 37 °C for 2–3 h. After incubation, the media were carefully removed from the wells and mixed with solubilizing buffer. A purple color solution was visible at this stage. The control solution (without incorporation of nanoparticles/pure incubated cells) and treated samples were again incubated for an hour at 37 °C to ensure that the formazan precipitate was dissolved.” left out\nas §2, with “Differences were considered significant at p < 0.05.” left out"}}, "note": "Values joined by “and” are separate entries in the source; they are usually repeats but may differ in a detail not shown here. Identical values can stand only once. Where a SMILES comes first, the peptide text is derived from it."}
{"compound": "COC(=O)[C@H](CC(C)C)NC(=O)[C@H]1CCCN1C(=O)[C@H](CC(C)C)NC(=O)OC(C)(C)C", "note": "[Peptide P1, Boc-L-^DP-L-OMe] (HELM PEPTIDE1{[CC(C)(C)OC(=O)[*:2]].L.[dP].L.[CO[*:1]]}$$$$V2.0)", "values": [{"measurement": "% inhibition", "setting": "[1]; MDA MB 231, 1 µg/mL", "value": 29.98, "unit": "%"}, {"measurement": "% inhibition", "setting": "[1]; MDA MB 231, 5 µg/mL", "value": 37.11, "unit": "%"}, {"measurement": "% inhibition", "setting": "[1]; MDA MB 231, 10 µg/mL", "value": 60.69, "unit": "%"}, {"measurement": "inhibition of up to (concentration not given)", "setting": "[1]; MDA MB-231, MTT, Fig. 5b/5d, concentration not given", "value": "around 29%"}, {"measurement": "change of NIH3T3 cells due to treatment", "setting": "[2]", "value": "do not show much change"}, {"measurement": "PI/AO fluorescent staining, observed state of the cells", "setting": "MDA MB-231 cells", "value": "a number of apoptotic cells as well and very few dead cells"}, {"measurement": "PI/AO fluorescent staining, observed state of the cells", "setting": "HT-29 cells", "value": "a number of apoptotic cells as well and very few dead cells"}, {"measurement": "IC50 rank among the five peptides", "setting": "[3]; HT-29, MTT, Fig. 1 legend", "value": "best IC50 value"}, {"measurement": "% inhibition (peptide screening)", "setting": "[3]; lowest concentration 1 µg/mL", "value": 23.22, "unit": "%"}, {"measurement": "% inhibition", "setting": "[4]; HT 29, 1 µg/mL", "value": "~ 19% and 19.69%"}, {"measurement": "% inhibition", "setting": "[4]; HT 29, 5 µg/mL", "value": 22.05, "unit": "%"}, {"measurement": "% inhibition", "setting": "[4]; HT 29, 10 µg/mL", "value": 27.72, "unit": "%"}]}
{"compound": "(U^BF)4-OMe [Peptide P2]", "values": [{"measurement": "% inhibition (peptide screening)", "setting": "[3]; lowest concentration 1 µg/mL", "value": 15.93, "unit": "%"}]}
{"compound": "Boc-P-A-OH [Peptide P3]", "values": [{"measurement": "% inhibition (peptide screening)", "setting": "[3]; lowest concentration 1 µg/mL", "value": 9.12, "unit": "%"}]}
{"compound": "Boc-P-U-OH [Peptide P4]", "values": [{"measurement": "% inhibition (peptide screening)", "setting": "[3]; 5 µg/mL", "value": "around 20%"}]}
{"compound": "Boc-βGly-βGly-OMe [Peptide P5]", "values": [{"measurement": "% inhibition (peptide screening)", "setting": "[3]; 5 µg/mL", "value": "around 20%"}]}
